{"source": "paper PMC6379368", "about": "“Extracellular and intracellular small-molecule galectin-3 inhibitors” (Scientific Reports, 2019)", "key": {"[1]": {"tested_on": "animal models of idiopathic pulmonary fibrosis (IPF)", "set-up": "method as in PMID 27356186, PMID 28055102", "settings": "cited from earlier work"}, "MIA PaCa-2 cells": {"tested_on": "MIA PaCa-2 cells", "test": "MTT assay, MIA PaCa-2 pancreatic cancer cells", "type": "cell-based", "settings": "MIA PaCa-2, 72 hours", "experimental": "(§1) The MTT (3-[4,5-dimethylthiazol-2-yl]−2,5-diphenyltetrazolium bromide) assays were performed as previously described. In brief, cells were seeded in 96-well plates (6000 cells/well for MCF-7 and HCC1937 and 5000 cells for JIMT-1 in 180 μl fully-supplemented medium as described under Cell culture). The cells were incubated for 24 hours before addition of galectin-3 inhibitors. The inhibitors were diluted in PBS from their respective stock solution in DMSO (see Galectin-3 inhibitors) and used at final concentrations ranging from 0.04 to 40 μM. DMSO was adjusted to make the final DMSO concentration 0.2% for all inhibitor concentrations, including the control sample (no inhibitor). After 72 hours of treatment, 20 μl of 5 mg/ml MTT solution (in PBS) was added to each well and incubation continued for 1 hour at 37 °C. […] Absorbance was monitored at 540 nm using a Labsystems iEMS Reader MF (Labsystems Oy, Helsinki, Finland) and the software DeltaSoft II v.4.14 (Biometallics Inc., Princeton, NJ, USA). […]\n(§2) Fluorescence anisotropy assay\n(§3) The affinity between inhibitor 1 and the carbohydrate recognition domain (CRD) of galectin-8C and between inhibitor 3 and the CRD of galectin-2, -4N, -4C, 8C, and -9C was determined using the fluorescence anisotropy assay described in the main article. […]"}, "JIMT-1 cells [2]": {"tested_on": "JIMT-1 cells", "test": "Cell proliferation assay (growth curves), JIMT-1", "type": "cell-based", "settings": "JIMT-1, 5 µM, up to 6 days", "experimental": "JIMT-1 cells were seeded in 5 cm diameter Petri dishes at a density of 400 000 cells/Petri dish. […] The cells were harvested by trypsinization and the number of cells was determined by counting in a hemocytometer (each day for a total of 6 days)."}, "BxPc-3 cells": {"tested_on": "BxPc-3 cells", "test": "MTT assay, BxPc-3 pancreatic cancer cells", "type": "cell-based", "settings": "BxPc-3, 72 hours", "experimental": "as §1, §2, §3"}, "[3]": {"test": "Caco-2 permeability assay", "settings": "human, Caco-2, pH 7.4"}, "AsPC-1 cells": {"tested_on": "AsPC-1 cells", "test": "MTT assay, AsPC-1 pancreatic cancer cells", "type": "cell-based", "settings": "AsPC-1, 72 hours", "experimental": "as §1, §2, §3"}, "[4]": {"tested_on": "pathological corneal neovascularization and fibrosis", "set-up": "method as in PMID 27356186, PMID 28055102", "settings": "cited from earlier work"}, "JIMT-1 cells [5]": {"tested_on": "JIMT-1 cells", "test": "MTT cell viability assay, JIMT-1", "type": "cell-based", "settings": "JIMT-1, 72 hours, 0.04–40 µM for 1 and 2, 0.04–20 µM for 3", "experimental": "The MTT (3-[4,5-dimethylthiazol-2-yl]−2,5-diphenyltetrazolium bromide) assays were performed as previously described. […] The cells were incubated for 24 hours before addition of galectin-3 inhibitors. The inhibitors were diluted in PBS from their respective stock solution in DMSO (see Galectin-3 inhibitors) and used at final concentrations ranging from 0.04 to 40 μM. DMSO was adjusted to make the final DMSO concentration 0.2% for all inhibitor concentrations, including the control sample (no inhibitor). After 72 hours of treatment, 20 μl of 5 mg/ml MTT solution (in PBS) was added to each well and incubation continued for 1 hour at 37 °C. Thereafter, the MTT containing medium was removed and 100 μl of DMSO was added per well and the plates swirled gently for 10 minutes to dissolve the cells and the purple formazan product precipitate. Absorbance was monitored at 540 nm using a Labsystems iEMS Reader MF (Labsystems Oy, Helsinki, Finland) and the software DeltaSoft II v.4.14 (Biometallics Inc., Princeton, NJ, USA)."}}}
{"smiles": "OC[C@H]1O[C@@H](S[C@@H]2O[C@H](CO)[C@H](O)[C@H](n3cc(-c4cccc(F)c4)nn3)[C@H]2O)[C@H](O)[C@@H](n2cc(-c3cccc(F)c3)nn2)[C@H]1O", "note": "[compound 1]", "values": [{"measurement": "effect in animal models of idiopathic pulmonary fibrosis (IPF)", "setting": "[1]", "value": "therapeutic effects"}, {"measurement": "toxicity (MTT)", "setting": "MIA PaCa-2 cells", "value": "low toxicity"}, {"measurement": "cell proliferation (growth curves)", "setting": "JIMT-1 cells [2]", "value": "no effect on cell proliferation"}, {"measurement": "toxicity (MTT)", "setting": "BxPc-3 cells", "value": "low toxicity"}, {"measurement": "Papp A→B", "setting": "[3]", "value": 0.07, "unit": "×10⁻⁶ cm/s"}, {"measurement": "Papp B→A", "setting": "[3]", "value": 0.05, "unit": "×10⁻⁶ cm/s"}, {"measurement": "toxicity (MTT)", "setting": "AsPC-1 cells", "value": "low toxicity"}, {"measurement": "effect in pathological corneal neovascularization and fibrosis", "setting": "[4]", "value": "therapeutic effects"}, {"measurement": "cell viability (MTT)", "setting": "JIMT-1 cells [5]", "value": "no apparent change in cell viability"}]}
